Like-named read-outs stand apart in the source and are kept apart here.
Experiments:
in vivo [1] = assay: in vivo
Source text: Blood, urine, and stools were collected to evaluate renal and gastro-intestinal clearance of nanomaterials. Sequential and simultaneous administration of one material and before the start of another to allow full clearance.
Both strains were obtained from Inotiv (Indianapolis, IN, USA). F344 rats were instilled with rat AY27 bladder cancer cells and athymic nude rats were instilled with human male bladder cancer strains: T24 and UMUC-3. […] In these rats, blood/urine were collected, but spared from PK/PD studies to avoid confounding results. In this cohort, rats (n=3) were instilled with tumors and treated with sequential intravesical and oral drug-MSN 3-drugs load and body fluids (blood/urine) collection at the same prescribed time points. An example: four rounds of treatment were administered fluid collected n=3 samples at each time point.

[2] = PK, intravenous administration of drug alone (current study); assay type: in vivo, rat; conditions: for Cmax: 3 mg/kg DOC, 12 mg/kg GEM, 6 mg/kg MMC; for AUC: read-out: AUC (Plasma Curves)
Description: Adult female rats are 250-300 g in body weight, or 10-15 times larger than adult C57-BI6 mice. The volume of an aqueous solution given by oral gavage procedure can be up to 5 mL/kg, thus for a 300 g rat, 1.5 mL volume is achievable (Turner, J Am Assoc Lab Anim Sci. 51(1): 25-30.). This permits a mass of 150 mg MSN, or the equivalent dose of free drug. The recommended volume of a tail vein injection is also 5 mL/kg, thus 150 mg MSN or equivalent drug can be administered by i.v. as well (https://research.unc.edu/files/2020/12/rat-handling-and-techniques.pdf).
We compared the one or 2 drugs to experiment carried out intravenous/systemic and/or intravesicular drug alone.

[3] = known value; cited from earlier work
in vivo [4] = assay: in vivo; remark: listed apart in the source
Source text: The following discusses oral administration and detection of the drug delivered orally. There is a need for oral drug delivery, i.e., it facilitates self-medication, storage, and reduced burden on the clinician, allowing for remote monitoring.

[5] = intravenous, cited from earlier work
[6] = intravenous, cited from earlier work; remark: listed apart in the source
[7] = oral, 50 mg/kg; cited from earlier work
[8] = rat, in vivo
[9] = intravenous, cited from earlier work; remark: listed apart in the source
[10] = Comparison of AUC for drug-MSN versus drug administered alone (FIG. 7); conditions: rat, in vivo
[11] = female, rat, in vivo, Cmax in stools
[12] = female, rat, in vivo, initial concentration (Cmax) in urine
[13] = female, rat, plasma, read-out: Cmax
[14] = female, rat, in vivo, po, 3 mg/kg
[15] = female, rat, in vivo, po, Cmax in stool
[16] = female, rat, in vivo, po, Cmax in urine
[17] = female, rat, in vivo, po, 12 mg/kg

CC(=O)O[C@@]12CO[C@@H]1C[C@H](O)[C@@]1(C)C(=O)[C@H](O)C3=C(C)[C@@H](OC(=O)[C@H](O)[C@@H](NC(=O)OC(C)(C)C)c4ccccc4)C[C@@](O)([C@@H](OC(=O)c4ccccc4)[C@H]21)C3(C)C [Docetaxel]
Cmax (in vivo [1]; [11]): 9.44 ng/mL | Cmax (in vivo [1]; [12]): 16600 ng/mL | detection in plasma (in vivo [1]; rat, in vivo): below the detection threshold | time of Cmax in stools (in vivo [1]; rat, in vivo): 24 h | Cmax [2, 13]: 116 ng/mL | Clearance ([2]; female, rat, plasma, 3 mg/kg): 624 mL/min | AUC ([2]; female, rat, plasma, 3 mg/kg): 0.016 µg·h/mL | tmax ([2]; female, rat, plasma, 3 mg/kg, read-out: tmax): 15 min | oral bioavailability [3]: 10% | AUC (in vivo [4]; [14]): 0.0133 µg·h/mL | Clearance (in vivo [4]; [14]): 45.11 L/h | tmax (in vivo [4]; [14]): 60 min | Cmax (in vivo [4]; [15]): 352 ng/mL | Cmax (in vivo [4]; [16]): 413 ng/mL | time of Cmax in stool (in vivo [4]; rat, in vivo, po): 6 h | AUC (Plasma Curves) ([5]; 2 mg/kg): 0.277 µg·h/mL | Cmax ([5]; 2 mg/kg): 68 ± 10 ng/mL | AUC (Plasma Curves) ([5]; 5 mg/kg): 16367.39 µg·h/mL | Cmax ([5]; 5 mg/kg): 7000 ng/mL | AUC (Plasma Curves) ([5]; 8 mg/kg): 2.2 ± 0.3 µg·h/mL | Cmax ([5]; 8 mg/kg): 950 ng/mL

Nc1ccn([C@@H]2O[C@H](CO)[C@@H](O)C2(F)F)c(=O)n1 [Gemcitabine]
plasma Cmax as % of Cmax for urine (in vivo [1]; female, rat, in vivo): ~1% | AUC (in vivo [1]; female, rat, in vivo, 12 mg/kg): 0.28 µg·h/mL | Clearance (in vivo [1]; female, rat, in vivo, 12 mg/kg): 143 mL/min | tmax (in vivo [1]; female, rat, in vivo, 12 mg/kg): 15 min | Cmax (in vivo [1]; [11]): 2.23 ng/mL | Cmax (in vivo [1]; [12]): 55600 ng/mL | time of Cmax in plasma (in vivo [1]; rat, in vivo): ≤ 15 min | time of Cmax in stools (in vivo [1]; rat, in vivo): 24 h | Cmax [2, 13]: 1790 ng/mL | Clearance ([2]; female, rat, plasma, 12 mg/kg): 17.4 mL/min | AUC ([2]; female, rat, plasma, 12 mg/kg): 2.3 µg·h/mL | tmax ([2]; female, rat, plasma, 12 mg/kg, read-out: tmax): 15 min | AUC (Plasma Curves) ([6]; 15 mg/kg): 22.69 ± 4.14 µg·h/mL | Clearance ([6]; 15 mg/kg): 393.29 L/h/m^2 | AUC (Plasma Curves) ([6]; 20 mg/kg): 133 ± 20 µg·h/mL | Clearance ([6]; 20 mg/kg): 89.46 L/h/m^2 | AUC (Plasma Curves) ([6]; 50 mg/kg): 5031.61 ± 927.4 µg·h/mL | Clearance ([6]; 50 mg/kg): 29.56 L/h/m^2 | tmax ([6]; 15-20 mg/kg): 4.98 min | AUC (Plasma Curves) [7]: 16132.95 ± 5128.0 µg·h/mL | Cmax [7]: 1181.17 ± 47.1 ng/mL | tmax [7]: 90 ± 54 min | oral bioavailability [3]: 10% | AUC (in vivo [4]; [17]): 1.14 µg·h/mL | Clearance (in vivo [4]; [17]): 2.109 L/h | tmax (in vivo [4]; [17]): 30 min | Cmax (in vivo [4]; [15]): 26.1 ng/mL | Cmax (in vivo [4]; [16]): 4740 ng/mL | time of Cmax in stool (in vivo [4]; rat, in vivo, po): 6 h | AUC, drug alone compared with drug-loaded MSN [8]: higher for drug alone

CO[C@@]12[C@H](COC(N)=O)C3=C(C(=O)C(C)=C(N)C3=O)N1C[C@@H]1N[C@@H]12 [Mitomycin C, Mitomycin c]
Cmax (in vivo [1]; drug alone, intravesical, 3 mg/kg DOC, 12 mg/kg GEM, 6 mg/kg MMC, plasma): 32.19 ng/mL | tmax (in vivo [1]; drug alone, intravesical, plasma): 15 min | Cmax in stools (in vivo [1]; intravesical administration, stools): 94.22 ng/mL | initial concentration (Cmax) in urine (in vivo [1]; intravesical administration, urine, 15 minutes following administration): 29498.07 ng/mL | tmax [2]: 15 min | Cmax ([2]; plasma): 39.5 ng/mL | tmax (in vivo [4]; drug alone, oral, plasma): 30 min | Cmax in stool (in vivo [4]; oral administration, stool): 157.09 ng/mL | Cmax in urine (in vivo [4]; oral administration, urine): 16135.89 ng/mL | Cmax ([9]; 4 mg/kg): 800 ng/mL | tmax ([9]; 4 mg/kg): 15 min | Cmax ([9]; 5 mg/kg): 12800 ± 400 ng/mL | tmax ([9]; 5 mg/kg): 4.98 min | AUC, drug alone compared with drug-loaded MSN [10]: higher for drug alone

Source: patent US12285498B2, “Pharmaceutical composition with nanoparticle-based drug delivery combined with non-invasive radiographic monitoring model” (NANOMEDTRIX, LLC, priority 2023, dated 2025)
